From patent US6544524B2, “Ethyl acetate extract from guignardia used to treat an individual infected by fungi or bacteria” (Fundacao Oswaldo Cruz - FIOCRUZ, priority 2001, dated 2003)

Legend:
[1] = tested on: Escherichia coli (ATCC 25922); assay: bioautographical method on a layer of agar; format: cell-based; details: against E. coli; Mueller-Hinton agar, 37° C., 24 hours, MTT
Experimental: (§1) The antimicrobial activity of this compound was detected employing the bioautographical method on a layer of agar (Rahalison,L.; Hamburger, M., Hostettmann, K.; Monod, M.; Frenk, E. Phytochemical Ananlysis.2.199-203.1991). The following micro-organisms were tested: Escherichia coli (ATCC 25922) and Staphylococcus aureus (ATCC 25923). The medium used was the Mueller-Hinton in agar (Oxoid). The cultures grew during the night in nutrient medium broth number 3 (Fluka). For the bioautographic test the cultures were standardised through successive dilutions in 10^5 cells/ml. The plaques were incubated at 37° C. for a period of 24 hours, sprayed with an aqueous solution of Methylthiazolyltetrazolium chloride (MTT)at 0.25% and then incubated for a further two hours at 37° C. The active fractions were detected under the form of white areas of inhibition on a lilac background.

[2] = tested on: Staphylococcus aureus (ATCC 25923); assay: bioautographical method on a layer of agar; format: cell-based; details: against S. aureus; Mueller-Hinton agar, 37° C., 24 hours, MTT
Experimental: as §1

`CC(C)C1(C(=O)O)OC(=O)/C(=C/c2ccccc2)O1` (centres unmarked) [compound of the invention, (Z)-5-benzylidene-2-isopropyl-4-oxo-1.3-dioxolane-2-carboxyl acid] showed an antibacterial activity [1] of 150 nM and an antibacterial activity [2] of 75 nM.
